Experimental data reported in US11406631B2, “Hydrazone derivatives for preventing or treating EBV-related cancers” (Universite de Bretagne Occidentale, priority 2018, dated 2022).

Columns and labels:
[1] = molecular target: G4-RNA EBNA1; assay: HT-G4-FID assay: Thiazole Orange displacement from G4-RNA; type: binding, Epstein-Barr virus; conditions: for DC50: K+-100 buffer, pH 7.3, triplicate assays; for affinity for the G-quadruplex structure of EBNA1 (in words, FID data): conclusion from Table 1
Procedure: This assay is based on the displacement of a fluorescent indicator (Thiazole Orange, hereinafter TO) from a G4-RNA structure (RNA G-quadruplex of EBNA1) by a putative ligand such as the compounds of the invention (see FIG. 1). This displacement is quantified as % TO displacement. The percentage of TO displacement is calculated from the fluorescence intensity (F) in the presence of a putative ligand, using:
[formula] where F0 is fluorescence intensity of the probe (TO) bound to RNA without added ligand. The percentage of displacement is then plotted as a function of the concentration of added ligand. The RNA affinity of putative ligands is evaluated using the concentration of a ligand required to decrease the fluorescence of the probe by 50% (noted DC50), which is determined graphically from non-linear fitting of the displacement curve. […] 2. Materials and Reagents
Thiazole Orange (TO) and cacodylic acid were purchased from Aldrich and used without further purification. The oligoribonucleotide EBNA1 [5′-r(GGGGCAGGAGCAGGAGGA)-3′] (SEQ ID no 1) purified by reversed-phase HPLC was purchased from Eurogentec.
Stock solutions of the ligands (2 mM in DMSO (dimethylsulfoxyde)) were used for G4-FID assay, unless otherwise stated, and were stored at −20° C. Stock solutions of TO (2 mM in DMSO) were used for G4-FID assay. Fluorescent probe powders and solutions were stored and used, protected from light and used as aliquots to avoid freeze-thaw cycles. HT-G4-FID measurements were performed on a FLUOstar Omega microplate reader (BMG Labtech) with 96-well Non-Binding Surface black with black bottom polystyrene microplates (Corning ref 3650).
For HT-G4-FID assay, the oligonucleotide was dissolved in K^+−100-buffer (10 mM lithium cacodylate, pH 7.3, 100 mM KCl, 1 mM EDTA, 1% DMSO). Oligonucleotide concentrations were determined on the basis of their absorbance at 260 nm. Prior to use, the oligonucleotide was pre-treated by heating at 95° C. for 5 min followed by a slow cooling to 25° C.
Each G4-FID assay is performed in a 96-well microplates. […] The microplate is filled with (a) K^+−100 solution (qs for 200 μL) (b) 10 μL of a solution of pre-folded oligonucleotides (5 μM) and TO (10 μM-2 eq) and (c) an extemporaneously prepared 5 μM ligand solution in K^+−100 buffer (0 to 100 μL along the line of the microplate, i.e., from column […]: 0, 0.125, 0.25, 0.375, 0.5, 0.625, 0.75, 1.0, 1.25, 1.5, 2.0 and 2.5 μM) (see Largy et al., Anal Bioanal Chem 2011, 400, 34193427). After 5 min of orbital shaking at 500 rpm, fluorescence intensity is measured using the following experimental parameters: positioning delay: 0.5 s, 20 flashes per well, emission/excitation filters (nm): 485/520, gain adjusted at 80% of the fluorescence from the most fluorescent well (i.e., a well from column A).
Results are shown in Table 1 below (lower DC50 values indicate higher affinity of compounds to the G4-RNA structure of EBNA1).

[2] = system: quadruplex RNA F-EBNA1-T; assay: FRET-melting assay; type: binding, Epstein-Barr virus; conditions: for ΔTm, ligand + 3 μM ds26 / ΔTm, ligand + 10 μM ds26 / ΔTm, ligand alone: F-EBNA1-T 0.2 μM, ligand 1.0 μM, K+10 buffer; for ΔTm, ligand + 3 μM ds26: competitor DNA ds26 3 μM (15 eq); for ΔTm, ligand + 10 μM ds26: competitor DNA ds26 10 μM (50 eq); for ΔTm, ligand alone: no competitor; for affinity for the G-quadruplex structure of EBNA1 (in words, FRET-melting data): conclusion from Table 2
From the text: The FRET-melting assay is based on thermal denaturation of G4-ARN monitored by fluorescence due to the phenomenon of Förster Resonance Energy Transfer (FRET). This method uses quadruplex-forming RNA sequence dual-labeled with two different fluorophores: a donor (fluorescein, or FAM) and an acceptor (tetramethylrhodamine, or TAMRA). When RNA is folded into G-quadruplex (G4) structure, fluorescence of the donor fluorophore is weak due to strong energy transfer (FRET) to the neighboring acceptor fluorophore. Upon thermal denaturation, the quadruplex unfolds and the fluorophores are separated, leading to decrease of the FRET effect and increase of the fluorescence of the donor (see FIG. 2). By following the fluorescence of the donor as a function of temperature, a melting curve of the G-quadruplex RNA can be obtained, which allows determining the temperature of denaturation at which 50% of the quadruples is unfolded (T1, FIG. 3).
The FRET-melting assay allows assessing the affinity of small molecules (ligands) for the G4-RNA. The addition of a G4-ligand stabilizes the G-quadruplex structure and increases the denaturation temperature. The temperature of denaturation in the presence of ligands (T2) can be compared with that obtained in the absence of ligands (T1). The value of ΔTm (ΔTm=T2−T1) represents a measure of the affinity of the compounds of the invention (ligand). Generally, values of ΔTm>20° C. correspond to ligands of high affinity.
The dual-labeled oligoribonucleotide EBNA1 [5′-FAM-r(GGGGCAGGAGCAGGAGGA)-TAMRA-3′] (SEQ ID no 2) purified by reversed-phase HPLC was purchased from Eurogentec. The donor fluorophore was 6-carboxyfluorescein (FAM) and the acceptor fluorophore was 6-carboxytetramethylrhodamine (TAMRA).
Stock solutions of the ligands (2 mM in DMSO) were used for FRET-melting assay, unless otherwise stated, and were stored at −20° C. FRET-melting measurements are performed on 7900HT Fast Real-Time PCR System (Applied Biosystems) with Microamp Fast optical 96-well reaction plate (Applied Biosystems).
Preparation of Oligonucleotides For FRET-melting assay, oligoribonucleotide F-EBNA1-T was dissolved in K^+10 buffer (10 mM lithium cacodylate buffer, pH 7.3, supplemented with 10 mM KCl and 90 mM LiCl).
Prior to use, all oligonucleotides were pre-treated by heating at 95° C. for 5 min, then rapidly cooled to 4° C. to favor the intramolecular folding by kinetic trapping. Duplex-DNA ds26 (5′CAA-TCG-GAT-CGA-ATT-CGA-TCC-GAT-TG-3′) (SEQ ID no 3) was prepared by heating this self-complementary strand at 90° C. for 5 min in K^+10 buffer followed by a slow cooling over 6 h.
FRET-melting assay is performed in 96-well plates on real time PCR apparatus 7900HT Fast Real-Time PCR System using the heating ramp as follow: 5 min at 25° C., then increase of 0.5° C. every minute until 95° C. Each experimental condition was tested in duplicated in a volume of 25 μL for each sample. The 96-well plates (Applied Biosystems) were prepared by aliquoting the annealed RNA (24 μL of 0.21 μM solution in K^+10 buffer) into each well, followed by 1 μL of ligand solution (25 μM in K^+10 buffer). For competition experiments, duplex competitors were added to 200 nM quadruplex sequences at final concentrations of 3.0 μM (15 eq) and 10.0 μM (50 eq), with a total reaction volume of 25 μL, with the labeled oligoribonucleotide (0.2 μM) and the ligand (1.0 μM). Measurements were made with excitation at 492 nm and detection at 516 nm. The change in the melting temperature in the presence of 1.0 μM putative ligand, ΔTm (1.0 μM), was calculated from at least two experiments by subtraction of the blank from the averaged melting temperature of each compound (1.0 μM).
The results are shown in FIG. 4 and in Table 2 below (higher ΔTm values indicate higher affinity of the compounds to G4-RNA structure of EBNA1).

[3] = system: GAr-based inhibition of translation; assay: Yeast assay (assays described in Lista et al.); type: cell-based, Saccharomyces cerevisiae
From the text: A yeast-based (Saccharomyces cerevisiae) assay that recapitulates all the aspects of the GAr-based inhibition of translation, including the GAr-length dependency, has been developed, that allowed understanding the mechanisms of GAr-mediated mRNA translation—suppression in cis, as well as the cellular factors involved (Lista et al. Biotechnol J 2015, 10, 1670-1681). This assay was successfully used to identify small molecular weight compounds that can stimulate EBNA1 expression both in yeast and mammalian cells and that relieve GAr-based limitation of antigen presentation (Voisset et al. Dis Model Mech 2014, 7, 435-444).
Compounds 1a, 2a, 4a, 5a, 7a, 10a and 11a were also tested in the various assay described in Lista et al. (Nat Commun 2017, 8, 16043).

Compound | DC50 [1] [µM] | ΔTm, ligand + 3 μM ds26 [2] [°C] | ΔTm, ligand + 10 μM ds26 [2] [°C] | ΔTm, ligand alone [2] [°C] | affinity for the G-quadruplex structure of EBNA1 (in words, FRET-melting data) [2] | result in the yeast assay [3] | affinity for the G-quadruplex structure of EBNA1 (in words, FID data) [1]
CC[n+]1cccc2cc(C=NNC(=O)c3ccc4ccc5ccc(C(=O)NN=Cc6ccc7c(ccc[n+]7CC)c6)nc5c4n3)ccc21.[I-].[I-] [Compound 12b, N′^2,N′^9-Bis[(1-ethylquinolinium-6-yl)methylene]-1,10-phenanthroline-2,9-dicarbohydrazide iodide] | 0.59 ± 0.03 | 25.9 ± 0.4 | 25.1 ± 0.8 | 28.5 ± 1.1 | particularly high affinity | – | –
C[n+]1ccc(C=NNC(=O)c2cc(C(=O)NN=Cc3cc[n+](C)c4ccccc34)ncn2)c2ccccc21.[I-].[I-] [Compound 5a, N′^4,N′^6-Bis[(1-methylquinolinium-4-yl)methylene]pyrimidine-4,6-dicarbohydrazide iodide] | – | – | – | – | – | positive results | –
O=C(NN=Cc1ccc2c(ccc[n+]2Cc2ccccc2)c1)c1cccc(C(=O)NN=Cc2ccc3c(ccc[n+]3Cc3ccccc3)c2)n1.[Br-].[Br-] [Compound 3c, N′^2,N′^6-Bis[(1-benzylquinolinium-6-yl)methylene]pyridine-2,6-dicarbohydrazide bromide] | 0.72 ± 0.03 | 12.2 ± 0.2 | 12.0 ± 0.2 | 10.4 ± 0.3 | – | – | –
O=C(NN=Cc1cc[n+](Cc2ccccc2)c2ccccc12)c1ccc2ccc3ccc(C(=O)NN=Cc4cc[n+](Cc5ccccc5)c5ccccc45)nc3c2n1.[Br-].[Br-] [Compound 11c, N′^2,N′^9-Bis[(1-benzylquinolinium-4-yl)methylene]-1,10-phenanthroline-2,9-dicarbohydrazide bromide] | 0.34 ± 0.02 | 20.3 ± 0.4 | 17.0 ± 0.8 | 20.1 ± 0.3 | particularly high affinity | – | particularly high affinity
O=C(NN=Cc1ccc2c(ccc[n+]2Cc2ccccc2)c1)c1ccc2ccc(C(=O)NN=Cc3ccc4c(ccc[n+]4Cc4ccccc4)c3)nc2n1.[Br-].[Br-] [Compound 9c, N′^2,N′^7-Bis[(1-benzylquinolinium-6-yl)methylene]-1,8-naphthyridine-2,7-dicarbohydrazide bromide] | 1.09 ± 0.1 | 12.3 ± 0.4 | 10.0 ± 1.7 | 13.1 ± 0.6 | – | – | –
O=C(NN=Cc1cc[n+](Cc2ccccc2)c2ccccc12)c1cccc(C(=O)NN=Cc2cc[n+](Cc3ccccc3)c3ccccc23)n1.[Br-].[Br-] [Compound 2c, N′^2,N′^6-Bis[(1-benzylquinolinium-4-yl)methylene]pyridine-2,6-dicarbohydrazide bromide] | 0.39 ± 0.02 | 11.4 ± 0.6 | 9.6 ± 0.2 | 10.1 ± 0.9 | – | – | particularly high affinity
CC[n+]1cccc2cc(C=NNC(=O)c3ccc4ccc(C(=O)NN=Cc5ccc6c(ccc[n+]6CC)c5)nc4n3)ccc21.[I-].[I-] [Compound 9b, N′^2,N′^7-Bis[(1-ethylquinolinium-6-yl)methylene]-1,8-naphthyridine-2,7-dicarbohydrazide iodide] | 0.8 ± 0.01 | 10.3 ± 0.2 | 8.8 ± 0.2 | 11.8 ± 0.1 | – | – | –
CC[n+]1cccc2cc(C=NNC(=O)c3cccc(C(=O)NN=Cc4ccc5c(ccc[n+]5CC)c4)n3)ccc21.[I-].[I-] [Compound 3b, N′^2,N′^6-Bis[(1-ethylquinolinium-6-yl)methylene]pyridine-2,6-dicarbohydrazide iodide] | 0.74 ± 0.03 | 7.6 ± 0.5 | 7.4 ± 0.3 | 5.9 ± 0.1 | – | – | –
O=C(NN=Cc1ccc2c(ccc[n+]2Cc2ccccc2)c1)c1ccc2ccc3ccc(C(=O)NN=Cc4ccc5c(ccc[n+]5Cc5ccccc5)c4)nc3c2n1.[Br-].[Br-] [Compound 12c, N′^2,N′^9-Bis[(1-benzylquinolinium-6-yl)methylene]-1,10-phenanthroline-2,9-dicarbohydrazide bromide] | 0.65 ± 0.06 | 25.0 ± 0.7 | 22.7 ± 1.5 | 25.3 ± 1.3 | particularly high affinity | – | –
